What was measured:
Type in all cases: cell-based
A549 lung cancer cells [1] = assay: Transwell migration assay of A549 cells expressing FoxM1 WT or point mutants; conditions: Transwell, 72 hours, control set to 1; TGF-β 5 ng/ml positive control
Method: To examine the effects of FoxM1 WT, phosphorylation, and non-phosphorylated point mutants on the motility of cancer cells, the migration assay was performed in A549 lung cancer cells expressing mutant proteins.
Specifically, 5×10^4 cells of lung cancer cells A549 expressing each of WT, phosphorylation, and non-phosphorylated point mutant of FoxM1 were seeded in an 8.0 μm, 24 well insert, and the inserts were placed in a 24-well plate after medium with 10% fetal bovine serum (FBS) was dispensed in the 24-well plate. For the positive control, 0.5 ml of RPMI1640 (10% FBS) containing 5 ng/ml of TGF-β was used. After 72 hours from cell seeding, 500 μl of 4% paraformaldehyde was dispensed, washed three times with 1×PBS, and stained with 0.05% crystal violet solution for 5 minutes. After 5 minutes, the cells were washed five times with 1×PBS, and the staining intensity was measured using the Odyssey infrared imaging system.
Specifically, 5×10^4 cells of lung cancer cells A549 expressing control and FoxM1 WT were seeded in an 8.0 μm, 24 well insert, and the inserts were placed in a 24-well plate after medium with 10% fetal bovine serum (FBS) was dispensed in the 24-well plate. For the positive control, 0.5 ml of RPMI1640 (10% FBS) containing 5 ng/ml of TGF-β was added and used. After 72 hours from cell seeding, 500 μl of 4% paraformaldehyde was dispensed, washed three times with 1×PBS, and stained with 0.05% crystal violet solution for 5 minutes. After 5 minutes, the cells were washed five times with 1×PBS, and the staining intensity was measured using the Odyssey infrared imaging system.

A549 lung cancer cells [2] = assay: Wound healing assay of A549 cells expressing FoxM1 phosphorylated point mutants; conditions: distance in the control group at 72 h set to 0%
Method: To observe the effects of phosphorylation point mutations on the motility of cancer cells, a wound healing assay was performed in lung cancer cells A549 expressing FoxM1 wild type (WT), phosphorylated point mutants S25E, S361E, and S715E, and a simultaneous triple-point mutation EEE protein.
Specifically, cells expressing the gene of FoxM1 point mutant by the lentivirus system were seeded into 6-well plates at 1×10^5 cells/well each. 24 hours after cell seeding, scratches were made at regular intervals using a 200 μl-pipette tip. In addition, A549 cells treated with mock as a negative control (Mock) and 5 ng/ml of TGF-β as a positive control were used. […] In addition, the distance in the control group at 72 h was set to 0%, and the relative distance was represented as a bar graph (FIG. 4G).

A549 lung cancer cells [3] = assay: Migration assay of TGF-β-treated A549 cells treated with peptide; conditions: TGF-β 5 ng/ml, 48 hours
Method: To determine the effects of treatment of the FoxM1 non-phosphorylated point mutant peptide on cancer cell motility in the metastatic environment treated with TGF-β, a migration assay was performed.
Specifically, 5×10^4 cells of A549 lung cancer cells were seeded in an 8.0 μm, 24 well insert, and the inserts were placed in a 24-well plate after medium with 10% fetal bovine serum (FBS) was dispensed in the 24-well plate. For the positive control, 0.5 ml of RPMI1640 (10% FBS) containing 5 ng/ml of TGF-β was dispensed, and 5 μM of the non-phosphorylated point mutant peptide was treated simultaneously. After 48 hours from cell seeding, 500 μl of 4% paraformaldehyde was dispensed into the plate, and the plate was washed three times with 1×PBS and stained with 0.05% crystal violet solution for 5 minutes. After 5 minutes, the plate was washed with 1×PBS five times, and the stained intensity was measured using the Odyssey infrared imaging system. When the stained intensity of the control group was set to 1, the relative stained intensity of each experimental group was represented in a graph.

TGF-β [reference compound]
cancer cell migration (stained intensity), increase compared to the control group (A549 lung cancer cells [1]): approximately 4 fold
relative healing distance (motility) at 72 h (A549 lung cancer cells [2]): 51%
stained intensity (migration) compared to the control group (A549 lung cancer cells [3]): 4 folds

Reference: patent US20250340881A1, “PHARMACEUTICAL COMPOSITION FOR TREATING CANCER COMPRISING FOXM1 MUTANT OR FOXM1 SHRNA” (Industry-University Cooperation Foundation Hanyang …, priority 2022, published 2025)
